{
  "source": "patent US20070128719A1",
  "about": "“ISOLATION AND EXPANSION OF ANIMAL CELLS IN CELL CULTURES” (TissueTech, Inc., priority 2003, published 2007)",
  "key": {"[1]": {"system": "limbal epithelial progenitor cells", "assay": "K12 and K10 immunostaining of human limbal explants in airlift culture", "type": "cell-based", "conditions": "SHEM, 2 weeks, 10 μM", "method": "(§1) Human limbal tissue cubes can be placed in the alternative on the center of type I collagen coated inserts and cultured in SHEM medium under submerge and airlift manners, of which the later was also added with p38 inhibitor. In the submerge manner, 4 ml culture medium was added to the culture dish to cover the entire limbal explant. In the airlift manner, 2 ml culture medium was added so as to let the insert bottom sit on the air-liquid interface. That is, the explant was exposed to air, but the remaining explant stroma was submerged in the medium meniscus. In the airlift+p38 inhibitor group, p 38 inhibitor SB 203580 was added to culture medium at a concentration of 10 μM. Cultures were incubated at 37° C. under 5% CO2 and 95% air, and the medium is changed every 2 days. Rabbit limbal explants are also cultured in the same fashion as the human tissue. Limbal tissue cubes are placed on the center of type I collagen coated inserts and cultured under airlift manner in SHEM medium with or without p38 inhibitor SB203580 for 1 week.\nTo study the effect of p38 inhibitor on the differentiation of limbal epithelial progenitor cells, human corneal limbal explants were cultured under submerge and airlift manners, of which the later was added with or without p38 inhibitor, on type I collagen coated inserts in SHEM medium for 2 weeks. […]"}, "[2]": {"system": "rabbit corneal limbal explant", "assay": "Rabbit limbal explant outgrowth on type I collagen coated insert, airlift culture", "type": "cell-based", "conditions": "SHEM", "method": "as §1\nTo study the effect of p38 inhibitor on the outgrowth epithelial sheet, rabbit corneal limbal explant is cultured on the type I collagen coated insert under the airlift manner in SHEM medium for 1 week with or without addition of p38 inhibitor (FIG. 2)."}, "[3]": {"system": "corneal limbal epithelial cells", "assay": "Type IV collagen immunostaining of epithelial outgrowth from human limbal explants on denuded AM", "type": "cell-based", "conditions": "explant on dAM in SHEM"}, "human limbal explants": {"system": "human limbal explants", "assay": "Epithelial outgrowth from human limbal explants cultured on intact AM with kinase inhibitors", "type": "cell-based", "conditions": "for epithelial outgrowth: limbal explant on intact AM in SHEM, up to 17 days, vs DMSO control", "method": "Human AM was provided by Bio-Tissue (Miami, Fla.) and stored at −80° C. before use. AM was devitalized by freezing and thawing and washed three times with HBSS before being fastened onto a 30 mm culture insert, Millicel-CM (which generated an insert with 23 mm diameter covered by AM), and placed in a 6 well plate (Meller, D. and Tseng S C G, Invest Ophthalmol Vis Sci., 40:878-86, 1999).\nAfter removal of excessive sclera, iris, corneal endothelium, conjunctiva, and Tenon's capsule, the limbal ring was separated by a 7.5 mm trephine from donor human corneas. Each limbal ring was rinsed 3 times with SHEM media. The limbal ring was then exposed for 10 min to 1.2 units/ml Dispase II in Mg^2+- and Ca^2+-free HBSS at 37° C. under 95% humidity and 5% CO2. Following three rinses with SHEM medium, each limbal ring was subdivided into two halves and each half further subdivided into 6 pieces of 1×1.5×2.5 mm explants. To eliminate variations of age, sex, and race, explants from the corresponding position of the same donor cornea were selected for the control and the experimental group, respectively. An explant was placed on the center of intact AM or plastic with the epithelial side facing up and cultured in SHEM medium. The experimental group was added with the inhibitor of desired concentration, while the control group was added with the same concentration of DMSO as the vehicle which was used to dissolve each inhibitor. The culture was maintained at 37° C. under 95% humidity and 5% CO2, the medium was changed every other day, and their outgrowth was monitored daily for 17 days using an inverted phase microscope (Nikon, Japan). The outgrowth area was digitized every other day by Adobe Photoshop 5.5 and analyzed by NIH ImageJ 1.30v (NIH, Bethesda, Md.).\nAll experiments were performed at least in triplicate. Summary data were reported as means±S.D., compiled and analyzed by MicroSoft Excel™ (MicroSoft, Redmont, Wash.). The mean and standard deviation were calculated for each group using the appropriate version of Student's unpaired t-test. Test results were reported as two-tailed p values, where p<0.05 was considered statistically significant."}, "p38 MAPK": {"system": "p38 MAPK", "assay": "Western blot of p38 MAPK phosphorylation in limbal epithelial cells expanded on intact AM", "conditions": "10 μM"}, "p44/42 MAPK [4]": {"system": "p44/42 MAPK", "assay": "Western blot of p44/42 MAPK phosphorylation in limbal epithelial cells expanded on intact AM", "type": "cell-based, human", "conditions": "10 μM"}, "FKHRL1": {"system": "FKHRL1", "assay": "Western blot of FKHRL1 phosphorylation in limbal epithelial cells expanded on intact AM", "type": "cell-based, human", "conditions": "10 μM"}, "p44/42 MAPK [5]": {"system": "p44/42 MAPK", "conditions": "10 μM; cited from earlier work"}, "Akt": {"system": "Akt", "assay": "Western blot of Akt phosphorylation in limbal epithelial cells expanded on intact AM", "type": "cell-based, human", "conditions": "10 μM"}, "[6]": {"system": "Smad-mediated TGF-β signaling", "assay": "Immunolocalization of Smad 2 and Smad 4 in murine keratocytes", "type": "cell-based, mouse", "conditions": "10 ng/ml, cells on plastic in DMEM/ITS (16% without TGF-β1)", "method": "Isolation and Culture of Keratocytes on Plastic or AM—Albino mice eyes were enucleated by forceps, washed profusely in PBS, and incubated in DMEM containing 20 mM HEPES, 15 mg/ml dispase II (Roche, Indianapolis, Ind.) and 100 mM sorbitol at 4° C. for 18 h (see Espana et al., Invest Ophthalmol Vis Sci. 44:4275-4281, 2003; Kawakita et al., Invest Ophthalmol Vis Sci. 45:3507-3512, 2004). The entire corneal epithelium loosened by this treatment was subsequently removed by vigorous shaking. Under a dissecting microscope, the corneal stroma was separated from the sclera at the corneoscleral limbus by pressing down the limbus with a 27 G needle while the eye was held with a forcep. Isolated corneal stromas were incubated overnight at 37° C. in DMEM containing 1.25 mg/ml collagenase A (Roche, Indianapolis, Ind.), 50 μg/ml gentamicin and 20 mM HEPES in a non-coated plastic dish until the tissue became “smeared” onto the dish bottom. Digested corneal stromas in collagenase A were centrifuged at 800×g for 5 min. Keratocytes were resuspended in DMEM containing 20 mM HEPES, ITS (5 μg/ml insulin, 5 μg/ml transferrin and 5 ng/ml sodium selenite), 50 μg/ml gentamicin and 1.25 μg/ml amphotericin B with or without 10% FBS. […]"}, "[7]": {"system": "murine limbal epithelial progenitor cells", "assay": "α-SMA expression in clonal cultures of murine limbal epithelial progenitor cells", "type": "cell-based, mouse", "conditions": "5 ng/ml in KSFM; low seeding density (500 cells/cm^2)", "method": "In clonal cultures of murine limbal epithelial progenitor cells, expression of α-SMA, a marker for myofibroblasts, was not detected when clonally expanded murine limbal epithelial cells were seeded at low density (500 cells/cm^2), but increasingly detected when cells were seeded at the intermediate (5,000 cells/cm^2) and high seeding densities (50,000 cells/cm^2). Cells expressing α-SMA were larger and squamous and could also express p63 in the nucleus. […] Under these conditions, expression of S100A shifted from cytoplasm to the nucleus, signaling of Smad 4 moved from cytoplasm to the nucleus, expression of […] moved from the intercellular junction to the cytoplasm and the perinucleus, the signaling of β-catenin moved from the intercellular junctions to the nucleus), and the signaling of LEF-1 also moved from the cytoplasm to the nucleus."}, "[8]": {"system": "murine limbal epithelial cells", "assay": "Clonal expansion of single cell expanded murine limbal epithelial cells in KSFM", "type": "cell-based, mouse", "conditions": "10 pg/ml and 150 pg/ml; 50 cells/cm^2 in KSFM, 6 days", "method": "Single cell expanded murine limbal epithelial cells were seeded at 50 cells/cm^2 in KSFM and cultured for 6 days. […] Cells seeded at 20,000 cells/cm^2 in KSFM became enlarged."}, "murine keratocytes": {"system": "murine keratocytes", "assay": "α-SMA expression (myofibroblast differentiation) of murine keratocytes", "type": "cell-based, mouse", "conditions": "cells on plastic; 5 days of continuous stimulation with TGF-β1", "method": "TGF-β1 Challenge and Neutralizing Antibody—To assess whether TGF-β1 affected the cell phenotype, triggered Smad 2 and Smad 4 nuclear translocation, and differentiated keratocytes into myofibroblasts, 10 ng/ml human recombinant TGF-β1 (Sigma, St Louis, Mo.) was added to serum-free DMEM/ITS cells for 3 h or 5 days when cells expanded on AM were passed to 24 well plastic dishes and AM inserts, respectively. In addition, primary keratocytes were seeded and cultured on AM or plastic for 3 days in DMEM/ITS or DMEM/10% FBS for 24 h, of which the latter was treated with or without 10 μg of a monoclonal antibody neutralizing TGF-β1, -β2, and -β3 (R&D Systems, Minneapolis, Minn.) per ml of DMEM medium for 48 h before adenoviral transfection.\nTo confirm that TGF-β was indeed responsible for Smad signaling in DMEM/10% FBS, a neutralizing antibody to three TGF-β isoforms was added to the plastic cultures. Nuclear translocation of Smad 4 was prevented. […] Thirty-nine percent of cells cultured on plastic differentiated into α-SMA-expressing myofibroblasts, but no cell on AM expressed α-SMA even after 5 days of continuous stimulation with TGF-β1."}, "Smad2": {"system": "Smad2", "assay": "Nuclear accumulation of Smad2 in rhesus monkey keratocytes", "type": "cell-based", "conditions": "4 ng/ml added in KSFM for 48 hours (19.3±5.1% in KSFM alone)", "from_the_text": "Three rhesus monkeys (Macaca Mulatta), 4 years old, and rabbit and mouse cornea were obtained from an approved tissue-sharing program after euthanasia. An entire anterior corneoscleral segment was removed from the globe by cutting near the limbus with Wescott's scissors. A central cornea was obtained with an 8.0 mm Barron's trephine and immediately transferred to KSFM medium (cat# 17005-042, GIBCO Invitrogen corporation, Carlsbad, Calif.). After removing Descemet's membrane and the corneal endothelium, the corneal epithelium was removed by dispase digestion for 16 h at 4° C. and the remaining corneal stroma was incubated at 37° C. for 16 h in 2.5 ml of DMEM containing 1 mg/ml collagenase A, 20 mM HEPES, 50 μg/ml gentamicin and 1.25 μg/ml amphotericin in a plastic dish. Afterwards, corneal stromal cells were resuspended in 1 ml of KSFM, centrifuged to remove residual matrices, resuspended in KSFM, and seeded on plastic dishes in KSFM or DMEM containing insulin, transferrin, and selenium supplement (DMEM/ITSG) (cat# 41400-045, GIBCO, Carlsbad, Calif.) or 10% FBS (DMEM/10% FBS).\nWhen the primary culture on plastic reached 80% confluence, cells were rendered into single cells by incubation in BSS containing 0.25% trypsin/1 mM EDTA at 37° C. for 1 to 5 minutes, and the enzymatic reaction was stopped by adding soybean-trypsin inhibitor. […]"}, "[9]": {"conditions": "after 17 days of treatment at 10 μM"}},
  "data": [
    {"compound": "C[S+]([O-])c1ccc(-c2nc(-c3ccncc3)c(-c3ccc(F)cc3)[nH]2)cc1", "note": "(centres unmarked) [SB203580]", "values": [
      {"measurement": "K10 positive cells in limbal and corneal epithelium", "setting": "[1]", "value": "no K10 positive cells"},
      {"measurement": "K12 expression in the limbal epithelium", "setting": "[1]", "value": "restored"},
      {"measurement": "outgrowth rate based on outgrowth surface area", "setting": "[2]; 1 week", "value": "not inhibited"},
      {"measurement": "outgrowth sheet in H&E stained cross-sections", "setting": "[2]; with p38 inhibitor", "value": "intact and consisted of uniformly two layers"},
      {"measurement": "type IV collagen staining of outgrowth epithelial cells", "setting": "[3]; 2 weeks", "value": "intracellular staining"},
      {"measurement": "type IV collagen staining of outgrowth epithelial cells", "setting": "[3]; 4 weeks", "value": "strong linear band staining"},
      {"measurement": "day at which epithelial outgrowth was noted / started", "setting": "human limbal explants; 10 μM", "value": 5, "unit": "days"},
      {"measurement": "epithelial outgrowth", "setting": "human limbal explants; 10 μM", "value": "did not change the outgrowth"},
      {"measurement": "phosphorylation at Thr180/Tyr182 of p38 MAPK", "setting": "p38 MAPK", "value": "abolished"},
      {"measurement": "phosphorylation of p44/42 MAPK (Thr202 and Tyr204)", "setting": "p44/42 MAPK [4]", "value": "did increase"}
    ]},
    {"compound": "N#CC(=C(/N)Sc1ccccc1N)/C(C#N)=C(\\N)Sc1ccccc1N", "note": "[U0126]", "values": [
      {"measurement": "phosphorylation of FKHRL1 at Thr32", "setting": "FKHRL1", "value": "decreased"},
      {"measurement": "p44/42 MAPK phosphorylation in many cells", "setting": "p44/42 MAPK [5]", "value": "completely inhibited"},
      {"measurement": "phosphorylation of Akt at Ser473", "setting": "Akt", "value": "decreased"},
      {"measurement": "phosphorylation of Akt at Thr308", "setting": "Akt", "value": "eliminated"},
      {"measurement": "day at which epithelial outgrowth was noted / started", "setting": "human limbal explants; 10 μM", "value": 8, "unit": "days"},
      {"measurement": "average outgrowth area at day 17", "setting": "human limbal explants; 10 μM, day 17", "value": "17.0±3.0", "unit": "mm^2"},
      {"measurement": "epithelial outgrowth", "setting": "human limbal explants; 10 μM", "value": "almost halted"},
      {"measurement": "time to re-initiation of outgrowth after switch to fresh medium", "setting": "human limbal explants; [9]", "value": 2, "unit": "days"},
      {"measurement": "time to reach ~80% confluence after removal of inhibitor", "setting": "human limbal explants; [9]", "value": 25, "unit": "days"},
      {"measurement": "phosphorylation of p44/42 MAPK (Thr202 and Tyr204)", "setting": "p44/42 MAPK [4]", "value": "abolished"}
    ]},
    {"compound": "TGF-β1: human recombinant TGF-β1 (Sigma)", "values": [
      {"measurement": "cells with nuclear localization of Smad 4", "setting": "[6]; 3 h", "value": 67, "unit": "%"},
      {"measurement": "cells with nuclear localization of Smad 4", "setting": "[6]; 5 days", "value": 85, "unit": "%"},
      {"measurement": "α-SMA expression", "setting": "[7]", "value": "upregulated"},
      {"measurement": "clonal expansion", "setting": "[8]", "value": "dose-dependently suppressed"},
      {"measurement": "cells differentiated into α-SMA-expressing myofibroblasts", "setting": "murine keratocytes", "value": "Thirty-nine"},
      {"measurement": "percentage of nuclear accumulation of Smad2", "setting": "Smad2", "value": "34.7±4.9", "unit": "%"}
    ]}
  ]
}
